# Source: patent publication US5846944A (priority 1997, dated 1998)
# Experiments:
# [1] = tested on: NIDDM, Zucker diabetic fatty rat (ZDF); assay: NIDDM in Zucker diabetic fatty rats (Example 5); type: in vivo; conditions: SDG 22 mg/kg daily orally in drinking water; two rats examined; two untreated rats showed clear signs
# Procedure: Oxidative stress was assessed by measuring lipid peroxidation product malondialdehyde (MDA) a measure of levels of oxygen radicals, and tissue chemiluminescence (CL) an index of antioxidant reserve in blood and pancreatic tissue. Male 5-6 weeks old ZDF and age match Zucker lean control (ZLC) rats were obtained from Charles River, St. Constant, Quebec, Canada.
# Rats were tested for glucosuria to establish diabetes at 5-6 weeks before they were assigned to various groups. None of the rats had glucosuria at this age. […] At the end of the protocol, under anesthesia, blood samples were taken to measure serum glucose and MDA, and pancreas were removed to assess pancreatic MDA and antioxidant reserve.
# [2] = tested on: streptozotocin-induced diabetes mellitus, Sprague-Dawley rats; assay: Streptozotocin-induced diabetes mellitus in rats (Example 3); type: in vivo; conditions: for Plasma Glucose: mean + S.E., P<0.05 vs Group I and vs Group II
# Procedure: Experimental diabetes mellitus was produced in Sprague-Dawley rats by injecting streptozotocin (STZ, 65 mg/kg) intravenously. Diagnosis of diabetes mellitus was established by testing for the presence of glucosuria with Ames Multi Stix (Miles Canada Inc., Etobicoke, Ontario) on the 3rd day after streptozotocin administration. The rats were divided into 4 groups.
# [3] = SDG 22 mg/kg orally for 3 days + STZ 65 mg/kg i.v., 12 rats/group
# [4] = SDG 44 mg/kg orally for 3 days + STZ 65 mg/kg i.v., 10 rats/group
compound,measurement,setting,value
"COc1cc(CC(COC2OC(CO)C(O)C(O)C2O)C(COC2OC(CO)C(O)C(O)C2O)Cc2ccc(O)c(OC)c2)ccc1O (stereo not shown) [SDG, secoisolariciresinol diglucoside]",signs of diabetes,[1],showed no signs of diabetes
same,# Rats Developing Diabetes,[2]; [3],2 rats
same,percent of rats developing diabetes mellitus,[2]; [3],16.6%
same,Plasma Glucose,[2]; SDG 22 mg/kg orally for 3 days + STZ,9.63 ± 0.71 mmol/L
same,"preventing the development of diabetes, 44 mg/kg compared with 22 mg/kg",[2]; SDG 44 mg/kg,more effective than in the dose of 22 mg/kg
same,# Rats Developing Diabetes,[2]; [4],1 rats
same,percent of rats developing diabetes mellitus,[2]; [4],10%
same,Plasma Glucose,[2]; SDG 44 mg/kg orally for 3 days + STZ,10.01 ± 0.76 mmol/L
same,plasma glucose levels compared with streptozotocin-treated group,[2]; SDG 22 and 44 mg/kg,much lower than those in streptozotocin-treated group
same,prevention of the development of STZ-induced diabetes mellitus,"[2]; SDG 22 and 44 mg/kg, overall",approximately 81%
